According to patent US7223776B2, “Compounds with anti-bacterial activity” (priority 2002, dated 2007):

Assay: Anti-bacterial activity: MHK measured against a panel of bacterial strains
Format: cell-based
Conditions: in relation to at least one of the listed strains (strain not specified); read-out: MHK
Experimental: The MHK (μg/ml) of those compounds was measured in relation to the following bacterial strains: S. aureus ATCC 29213, S. aureus 16, E. faecalis ATCC 29212, E. faecium vanA E25-1, H. influenzae 11, E. coli ATCC 25922, M. catarrhalis 117, S. pneumoniae ATCC 49619. Examples 5–6, 8, 11–16, 18–26, 30, 44–45, 47–58 have an MHK<=0.125 in relation to at least one of the listed strains.

| MIC [µg/mL] | SMILES |
| --- | --- |
| ≤ 0.125 | COc1ccc2nccc(C(O)CN3CCC[C@@H](CNCc4ccc5nsnc5c4)C3)c2c1 (mixture of isomers) [Example 6, (3S)-2-(3-{[(Benzo[1,2,5]thiadiazol-5-ylmethyl)-amino]-methyl}-piperidin-1-yl)-(1RS)-(6-methoxy-quinolin-4-yl)-ethanol] |
| ≤ 0.125 | COc1ccc2nccc(C(O)CN3CCC[C@@H](CNCc4ccc5c(c4)NC(=O)CO5)C3)c2c1 (mixture of isomers) [Example 5, (3S)-6-[({1-[2-Hydroxy-2-(6-methoxy-quinolin-4-yl)-ethyl]-piperidin-(3RS)-ylmethyl}-amino)-methyl]-4H-benzo[1,4]oxazin-3-one] |
| ≤ 0.5 | COc1ccc2nccc(C(O)CN3CCC[C@@H](CNCc4ccc5c(c4)OCCCO5)C3)c2c1 (mixture of isomers) [Example 7] |
| ≤ 0.5 | COc1ccc2nccc(C(O)CN3CCC[C@@H](CNCc4ccc5c(c4)OCO5)C3)c2c1 (mixture of isomers) [Example 9, 2-((3S)-{[(2,3-Dihydro-benzo[1,3]dioxo-6-ylmethyl)-amino]-methyl}-piperidin-1-yl)-(1RS)-(6-methoxy-quinolin-4-yl)-ethanol] |
| ≤ 0.5 | COc1ccc2nccc(C(O)CN3CCCC(NCc4ccc5c(c4)OCCO5)CC3)c2c1 (racemic) [Example 34] |
| ≤ 0.5 | COc1ccc2nccc(C(O)CN3CCOC(CNCc4ccc5c(c4)OCCO5)C3)c2c1 (racemic) [Example 61, 2-((2RS)-{[(2,3-Dihydro-benzo[1,4]dioxin-6-ylmethyl)-amino]-methyl}-morpholin-4-yl)-(1RS)-(6-methoxy-quinolin-4-yl)-ethanol] |
| ≤ 0.125 | COc1ccc2nccc(CCC3CCC(NCc4ccc5c(c4)NC(=O)CO5)CC3)c2c1 (stereo not shown) [Example 30, 6-({4-[2-(6-Methoxy-quinolin-4-yl)-ethyl]-cyclohexylamino}-methyl)-4H-benzo[1,4]oxazin-3-one] |
| ≤ 0.5 | COc1ccc2ncnc(OCC3CCC(NCc4ccc5c(c4)OCCO5)CC3)c2c1 (stereo not shown) [Example 42, (2,3-Dihydro-benzo[1,4]dioxin-6-ylmethyl)-[4-(6-methoxy-quinazolin-4-yloxymethyl)-cyclohexyl]-amine] |
| ≤ 0.5 | COc1ccc2ncnc(OCC3CCC(NCc4cnc5ccccc5n4)CC3)c2c1 (stereo not shown) [Example 43, [4-(6-Methoxy-quinazolin-4-yloxymethyl)-cyclohexyl]-quinoxalin-2-ylmethyl-amine] |
| ≤ 0.125 | COc1ccc2ncnc(OCC3CCC(NCc4ccc5c(c4)NC(=O)CO5)CC3)c2c1 (stereo not shown) [Example 44, 6-{[4-(6-Methoxy-quinazolin-4-yloxymethyl)-cyclohexylamino]-methyl}-4H-benzo[1,4]oxazin-3-one] |
| ≤ 0.125 | COc1ccc2ncnc(OCC3CCC(NC/C=C/c4ccccc4)CC3)c2c1 (stereo not shown) [Example 45, [4-(6-Methoxy-quinazolin-4-yloxymethyl)-cyclohexyl]-(3-phenyl-allyl)-amine] |
| ≤ 0.5 | COc1ccc2ncnc(OCC3CCC(NCC(=O)Nc4ccccn4)CC3)c2c1 (stereo not shown) [Example 46, 2-[4-(6-Methoxy-quinazolin-4-yloxymethyl)-cyclohexylamino]-N-pyridin-2-yl-acetamide] |
| ≤ 0.5 | COc1ccc2nccc(C(O)CN3CCC=C(CNCc4ccc5c(c4)OCCO5)C3)c2c1 (stereo not shown) [Example 59, 2-(5-{[(2,3-Dihydro-benzo[1,4]dioxin-6-ylmethyl)-amino]-methyl}-3,6-dihydro-2H-pyridin-1-yl)-1-(6-methoxy-quinolin-4-yl)-ethanol] |

Same assay, conditions: read-out: MHK

| SMILES | MIC [µg/mL] |
| --- | --- |
| COc1ccc2nccc([C@@H](O)CN3CCC[C@@H](CNCc4ccc5c(c4)OCCO5)C3)c2c1 [Example 8, 2-((3S)-{[(2,3-Dihydro-benzo[1,4]dioxin-6-ylmethyl)-amino]-methyl}-piperidin-1-yl)-(1S)-(6-methoxy-quinolin-4-yl)-ethanol] | ≤ 0.125 |
| COc1ccc2ncnc(CCC3(O)CCC(NCc4ccc5c(c4)OCO5)CC3)c2c1 (stereo not shown) [Example 10, 4-[(Benzo[1.3]dioxol-5-ylmethyl)-amino]-1-[2-(6-methoxy-quinazolin-4-yl)-ethyl]-cyclohexanol] | ≤ 0.5 |
| CCOc1ccc2nccc(CCC3(O)CCC(NCc4ccc5c(c4)OCO5)CC3)c2c1 (stereo not shown) [Example 17] | ≤ 0.5 |
